According to patent US12194198B2, “High strength porous materials for controlled release” (Access Vascular, Inc., priority 2018, dated 2025):

Assays:
A. baumannii = conditions: cited from earlier work
[1] = Chlorhexidine free base saturation in methanol; type: physicochemical; conditions: CHX/methanol solutions
From the text: Solution was made with […] chlorhexidine free base (CHX) in methanol. CHX/methanol solutions appeared to reach saturation around 1000 ppm. Serial dilutions were made from the solution, where the UV-Vis would become overloaded when concentrations were above 200 ppm. In order to avoid overloading the UV-Vis, concentrations below 100 ppm were used to collect absorbance values. FIG. 8 and Table 6 show the absorbance data collected from the chlorhexidine free base standards.

P. aeruginosa = conditions: cited from earlier work

## [H]/N=C(\N/C(=N/[H])NCCCCCCNC(=N)NC(=N)Nc1ccc(Cl)cc1)Nc1ccc(Cl)cc1 [chlorhexidine]
A. baumannii
  largest known minimum inhibitory concentration (MIC): 64 µg/mL
[1]
  saturation concentration in methanol: around 1000 ppm
P. aeruginosa
  largest known minimum bactericidal concentration (MBC): 128 µg/mL
